Data on seven molecules can be found in US10988523B2, “Modified lipidated Relaxin B chain peptides and their therapeutic use” (Sanofi, priority 2018, dated 2021).

*1 amine or outer side, *2 acyl side, *3 side chain or, on linkers, in order; H or OH if unused. Where a SMILES comes first, the peptide text is derived from it. Side-chain parts run from the residue outwards. [ ]: non-standard residue; d: D form. The star is where a group is joined. X10 = CCCCCCCCCCCCCCCC(=O)N[C@@H](CCC(=O)N[C@@H](CCC(=O)N[C@@H](CCC(=O)NCCCOCCOCCOCCCNC(=O)CCC(=O)NCCCOCCOCCOCCCN*)C(=O)O)C(=O)O)C(=O)O; Arachidoyl = CCCCCCCCCCCCCCCCCCCC(=O)*; Heptadecanoyl = CCCCCCCCCCCCCCCCC(=O)*; γGlu = O=C(O)[C@H](CCC(=O)[*:2])N[*:1]; Pentadecanoyl = CCCCCCCCCCCCCCC(=O)*; Palmitoyl = CCCCCCCCCCCCCCCC(=O)*; Suc = O=C(CCC(=O)[*:2])[*:1]; αMeK = C[C@](N)(CCCCN)C(=O)O; Nle = CCCC[C@H](N)C(=O)O; AEEA = NCCOCCOCC(=O)O; Aib = CC(C)(N)C(=O)O

The Emax is the greatest response seen or fitted, relative to the assay's reference. A word on the EC50: it is the midpoint of the concentration-response curve.

For this experiment, the target named is T1, RXFP1 (Homo sapiens, UniProt Q9HBX9).
T1 construct: OVCAR5 cells expressing endogenous RXFP1; endogenous in cells; host or cells: OVCAR5 cells
T1 sequence (Q9HBX9 1-757): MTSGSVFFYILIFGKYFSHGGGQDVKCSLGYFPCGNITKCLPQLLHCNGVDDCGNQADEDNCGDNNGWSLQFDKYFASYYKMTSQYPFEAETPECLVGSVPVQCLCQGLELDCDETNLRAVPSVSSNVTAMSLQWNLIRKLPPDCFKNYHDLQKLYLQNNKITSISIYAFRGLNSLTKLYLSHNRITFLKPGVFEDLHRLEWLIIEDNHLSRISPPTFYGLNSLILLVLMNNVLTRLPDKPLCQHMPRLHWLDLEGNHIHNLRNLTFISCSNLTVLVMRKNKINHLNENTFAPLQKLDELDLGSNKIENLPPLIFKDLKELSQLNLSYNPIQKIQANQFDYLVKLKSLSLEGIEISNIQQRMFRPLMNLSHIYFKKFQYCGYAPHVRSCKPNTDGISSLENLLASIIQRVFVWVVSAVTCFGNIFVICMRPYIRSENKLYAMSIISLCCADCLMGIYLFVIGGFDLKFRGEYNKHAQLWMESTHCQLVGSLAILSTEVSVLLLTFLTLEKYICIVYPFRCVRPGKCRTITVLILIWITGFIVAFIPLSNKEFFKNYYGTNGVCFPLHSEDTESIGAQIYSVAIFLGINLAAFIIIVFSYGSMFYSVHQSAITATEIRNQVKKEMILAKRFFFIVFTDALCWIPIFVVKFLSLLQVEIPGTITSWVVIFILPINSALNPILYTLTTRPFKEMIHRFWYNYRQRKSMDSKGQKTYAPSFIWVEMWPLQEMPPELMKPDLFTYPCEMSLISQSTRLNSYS
Nature of the experiment: OVCAR5 cAMP assay (HTRF), RXFP1 agonist activity. Type of experiment: cell-based. The conditions noted are these: for Emax: OVCAR-5, maximal cAMP relative to H2-relaxin maximum (100%), read-out: EMax, OVCAR 5 cells (cAMP); for EC50: OVCAR5 cells, cAMP HTRF, read-out: EC50 (nM), OVCAR 5 cells (cAMP). The essentials:
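cAMP accumulation readout: after 1 mM IBMX for 40 min, endogenous-RXFP1 OVCAR5 cells got rising peptide concentrations without FCS, 30 min, 37° C, then lysis with HTRF cAMP reagents. Nonlinear regression gave EC50; Emax expressed relative to H2-relaxin maximum, same occasion.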

Consider `CCCCCCCCCCCCCCC(=O)N[C@@H](CCC(=O)N[C@@H](CCC(=O)N[C@@H](CCC(=O)NCCOCCOCC(=O)NCCOCCOCC(=O)NCCOCCOCC(=O)NCCCC[C@H](NC(=O)[C@H](CCCCNC(C)=O)NC(=O)[C@H](CCCCN)NC(=O)[C@H](CCCNC(=N)N)NC(=O)C(C)(C)NC(=O)[C@H](CO)NC(=O)[C@H](Cc1c[nH]c2ccccc12)NC(=O)[C@@H](NC(=O)[C@H](CO)NC(=O)[C@H](CCCC)NC(=O)CNC(=O)[C@H](CCC(=O)O)NC(=O)C(C)(C)NC(=O)C(C)(C)NC(=O)[C@@H](NC(=O)[C@H](CCCCNC(C)=O)NC(=O)[C@H](C)NC(=O)[C@H](CCCNC(=N)N)NC(=O)[C@@H](NC(=O)[C@H](CCCCN)NC(=O)[C@H](CCC(=O)O)NC(=O)[C@H](CCCNC(=N)N)NC(=O)CNC(=O)[C@H](CCC(=O)O)NC(=O)[C@H](CC(C)C)NC(C)=O)C(C)C)[C@@H](C)CC)[C@@H](C)O)C(N)=O)C(=O)O)C(=O)O)C(=O)O` [compound 163] (Ac-LEGREKVRAK(Ac)I[Aib][Aib]EG[Nle]STWS[Aib]RKK(Ac)K([AEEA-AEEA-AEEA-γGlu-γGlu-γGlu-Pentadecanoyl])-NH2), for which the Emax was found to be 87%.

As to `CCCCCCCCCCCCCCCCC(=O)N[C@@H](CCC(=O)N[C@@H](CCC(=O)N[C@@H](CCC(=O)NCCOCCOCC(=O)NCCOCCOCC(=O)NCCOCCOCC(=O)NCCCC[C@H](NC(=O)[C@H](CCCCNC(C)=O)NC(=O)[C@H](CCCCN)NC(=O)[C@H](CCCNC(=N)N)NC(=O)C(C)(C)NC(=O)[C@H](CO)NC(=O)[C@H](Cc1c[nH]c2ccccc12)NC(=O)[C@@H](NC(=O)[C@H](CO)NC(=O)[C@H](CCCC)NC(=O)CNC(=O)[C@H](CCC(=O)O)NC(=O)C(C)(C)NC(=O)C(C)(C)NC(=O)[C@@H](NC(=O)[C@H](CCCCNC(C)=O)NC(=O)[C@H](C)NC(=O)[C@H](CCCNC(=N)N)NC(=O)[C@@H](NC(=O)[C@H](CCCCN)NC(=O)[C@H](CCC(=O)O)NC(=O)[C@H](CCCNC(=N)N)NC(=O)CNC(=O)[C@H](CCC(=O)O)NC(=O)[C@H](CC(C)C)NC(C)=O)C(C)C)[C@@H](C)CC)[C@@H](C)O)C(N)=O)C(=O)O)C(=O)O)C(=O)O` [compound 164] (Ac-LEGREKVRAK(Ac)I[Aib][Aib]EG[Nle]STWS[Aib]RKK(Ac)K([AEEA-AEEA-AEEA-γGlu-γGlu-γGlu-Heptadecanoyl])-NH2), the Emax came out at 93%.

Turning to `CCCCCCCCCCCCCCCC(=O)N[C@@H](CCC(=O)NCCOCCOCC(=O)N[C@@H](CCC(=O)N[C@@H](CCC(=O)NCCOCCOCC(=O)NCCOCCOCC(=O)NCCCC[C@H](NC(=O)[C@H](CCCCNC(C)=O)NC(=O)[C@H](CCCCN)NC(=O)[C@H](CCCNC(=N)N)NC(=O)C(C)(C)NC(=O)[C@H](CO)NC(=O)[C@H](Cc1c[nH]c2ccccc12)NC(=O)[C@@H](NC(=O)[C@H](CO)NC(=O)[C@H](CCCC)NC(=O)CNC(=O)[C@H](CCC(=O)O)NC(=O)C(C)(C)NC(=O)C(C)(C)NC(=O)[C@@H](NC(=O)[C@H](CCCCNC(C)=O)NC(=O)[C@H](C)NC(=O)[C@H](CCCNC(=N)N)NC(=O)[C@@H](NC(=O)[C@H](CCCCN)NC(=O)[C@H](CCC(=O)O)NC(=O)[C@H](CCCNC(=N)N)NC(=O)CNC(=O)[C@H](CCC(=O)O)NC(=O)[C@H](CC(C)C)NC(C)=O)C(C)C)[C@@H](C)CC)[C@@H](C)O)C(N)=O)C(=O)O)C(=O)O)C(=O)O` [compound 165] (Ac-LEGREKVRAK(Ac)I[Aib][Aib]EG[Nle]STWS[Aib]RKK(Ac)K([AEEA-AEEA-γGlu-γGlu-AEEA-γGlu-Palmitoyl])-NH2), the EC50 amounted to 0.38 nM and the Emax came out at 105%.

For `CCCCCCCCCCCCCCCC(=O)N[C@@H](CCC(=O)N[C@@H](CCC(=O)N[C@@H](CCC(=O)NCCCOCCOCCOCCCNC(=O)CCC(=O)NCCCOCCOCCOCCCNC(=O)CCC(=O)NCCCC[C@H](NC(=O)[C@H](CCCCNC(C)=O)NC(=O)[C@H](CCCCN)NC(=O)[C@H](CCCNC(=N)N)NC(=O)C(C)(C)NC(=O)[C@H](CO)NC(=O)[C@H](Cc1c[nH]c2ccccc12)NC(=O)[C@@H](NC(=O)[C@H](CO)NC(=O)[C@H](CCCC)NC(=O)CNC(=O)[C@H](CCC(=O)O)NC(=O)C(C)(C)NC(=O)C(C)(C)NC(=O)[C@@H](NC(=O)[C@H](CCCCNC(C)=O)NC(=O)[C@H](C)NC(=O)[C@H](CCCNC(=N)N)NC(=O)[C@@H](NC(=O)[C@H](CCCCN)NC(=O)[C@H](CCC(=O)O)NC(=O)[C@H](CCCNC(=N)N)NC(=O)CNC(=O)[C@H](CCC(=O)O)NC(=O)[C@H](CC(C)C)NC(C)=O)C(C)C)[C@@H](C)CC)[C@@H](C)O)C(N)=O)C(=O)O)C(=O)O)C(=O)O` [compound 166] (Ac-LEGREKVRAK(Ac)I[Aib][Aib]EG[Nle]STWS[Aib]RKK(Ac)K([Suc-X10])-NH2), the 50% effective concentration (EC50) came out at 0.26 nM and the Emax was determined as 92%.

Regarding `CCCCCCCCCCCCCCC(=O)N[C@@H](CCC(=O)N[C@@H](CCC(=O)N[C@@H](CCC(=O)N[C@@H](CCC(=O)NCCCC[C@H](NC(=O)COCCOCCNC(=O)COCCOCCNC(=O)COCCOCCNC(=O)COCCOCCNC(=O)[C@H](CCCCNC(C)=O)NC(=O)[C@H](C)NC(=O)[C@H](CCCNC(=N)N)NC(=O)[C@](C)(CCCCN)NC(=O)[C@H](CO)NC(=O)[C@H](Cc1ccccc1)NC(=O)[C@@H](NC(=O)[C@H](CO)NC(=O)[C@H](CCCC)NC(=O)CNC(=O)[C@H](CCC(=O)O)NC(=O)C(C)(C)NC(=O)C(C)(C)NC(=O)[C@@H](NC(=O)[C@H](CCCCNC(C)=O)NC(=O)[C@H](C)NC(=O)[C@H](CCCNC(=N)N)NC(=O)[C@@H](NC(=O)[C@H](CCCCN)NC(=O)[C@H](CCC(=O)O)NC(=O)[C@H](CCCNC(=N)N)NC(=O)CNC(=O)[C@H](CCC(=O)O)NC(=O)[C@H](CC(C)C)NC(C)=O)C(C)C)[C@@H](C)CC)[C@@H](C)O)C(N)=O)C(=O)O)C(=O)O)C(=O)O)C(=O)O` [compound 167] (Ac-LEGREKVRAK(Ac)I[Aib][Aib]EG[Nle]STFS[αMeK]RAK(Ac)[AEEA][AEEA][AEEA][AEEA]K([γGlu-γGlu-γGlu-γGlu-Pentadecanoyl])-NH2), the EC50 worked out at 0.05 nM and the Emax came to 93%.

Consider `CCCCCCCCCCCCCCC(=O)N[C@@H](CCC(=O)N[C@@H](CCC(=O)NCCCC[C@H](NC(=O)CC[C@H](NC(=O)CC[C@H](NC(=O)COCCOCCNC(=O)COCCOCCNC(=O)COCCOCCNC(=O)COCCOCCNC(=O)[C@H](CCCCNC(C)=O)NC(=O)[C@H](C)NC(=O)[C@H](CCCNC(=N)N)NC(=O)[C@](C)(CCCCN)NC(=O)[C@H](CO)NC(=O)[C@H](Cc1ccccc1)NC(=O)[C@@H](NC(=O)[C@H](CO)NC(=O)[C@H](CCCC)NC(=O)CNC(=O)[C@H](CCC(=O)O)NC(=O)C(C)(C)NC(=O)C(C)(C)NC(=O)[C@@H](NC(=O)[C@H](CCCCNC(C)=O)NC(=O)[C@H](C)NC(=O)[C@H](CCCNC(=N)N)NC(=O)[C@@H](NC(=O)[C@H](CCCCN)NC(=O)[C@H](CCC(=O)O)NC(=O)[C@H](CCCNC(=N)N)NC(=O)CNC(=O)[C@H](CCC(=O)O)NC(=O)[C@H](CC(C)C)NC(C)=O)C(C)C)[C@@H](C)CC)[C@@H](C)O)C(=O)O)C(=O)O)C(N)=O)C(=O)O)C(=O)O` [compound 168] (Ac-LEGREKVRAK(Ac)I[Aib][Aib]EG[Nle]STFS[αMeK]RAK(Ac)[AEEA][AEEA][AEEA][AEEA][γGlu][γGlu]K([γGlu-γGlu-Pentadecanoyl])-NH2), for which the EC50 stood at 0.06 nM and the Emax is 91%.

Regarding `CCCCCCCCCCCCCCCCCCCC(=O)N[C@@H](CCC(=O)N[C@@H](CCC(=O)N[C@@H](CCC(=O)NCCOCCOCC(=O)NCCOCCOCC(=O)NCCOCCOCC(=O)NCCCC[C@H](NC(=O)[C@H](CCCCNC(C)=O)NC(=O)[C@H](CCCCN)NC(=O)[C@H](CCCNC(=N)N)NC(=O)C(C)(C)NC(=O)[C@H](CO)NC(=O)[C@H](Cc1c[nH]c2ccccc12)NC(=O)[C@@H](NC(=O)[C@H](CO)NC(=O)[C@H](CCCC)NC(=O)CNC(=O)[C@H](CCC(=O)O)NC(=O)C(C)(C)NC(=O)C(C)(C)NC(=O)[C@@H](NC(=O)[C@H](CCCCNC(C)=O)NC(=O)[C@H](C)NC(=O)[C@H](CCCNC(=N)N)NC(=O)[C@@H](NC(=O)[C@H](CCCCN)NC(=O)[C@H](CCC(=O)O)NC(=O)[C@H](CCCNC(=N)N)NC(=O)CNC(=O)[C@H](CCC(=O)O)NC(=O)[C@H](CC(C)C)NC(C)=O)C(C)C)[C@@H](C)CC)[C@@H](C)O)C(N)=O)C(=O)O)C(=O)O)C(=O)O` [compound 171] (Ac-LEGREKVRAK(Ac)I[Aib][Aib]EG[Nle]STWS[Aib]RKK(Ac)K([AEEA-AEEA-AEEA-γGlu-γGlu-γGlu-Arachidoyl])-NH2), the EC50 turned out to be 0.18 nM and the Emax turned out to be 83%.
